Source: the supplement of paper PMC10307832

How the values were obtained:
Experiment in all cases: relative viability (nuclei count vs DMSO), 5 days (fraction); higher = more cells survive
HCC-366 = system: HCC-366
Procedure, shortened: (§1)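 A single step with final 0.05% Triton X-100, 1% formaldehyde and 1 ug/ml Hoechst fixed the cells and stained nuclei 5 days after treatment. Lung cancer cell lines in 1536-well plates had been treated by pin tool the day after seeding with one drug alone or a fixed anchor-drug dose plus five library-drug doses (not always all listed) in √10 steps, and nuclei were counted on 4× images. Relative viability is the ratio of nuclei in treated wells to nuclei in vehicle wells, taken as the median of duplicate plates.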

NCI-H1975 = system: NCI-H1975
Procedure, shortened: as §1

NCI-H1734 = system: NCI-H1734
Procedure, shortened: as §1

LOU-NH91 = system: LOU-NH91
Procedure, shortened: as §1

NCI-H2085 = system: NCI-H2085
Procedure, shortened: as §1

NCI-H1355 = system: NCI-H1355
Procedure, shortened: as §1

CAL-12T = system: CAL-12T
Procedure, shortened: as §1

HCC-44 = system: HCC-44
Procedure, shortened: as §1

NCI-H1395 = system: NCI-H1395
Procedure, shortened: as §1

NCI-H1650 = system: NCI-H1650
Procedure, shortened: as §1

LU99A = system: LU99A
Procedure, shortened: as §1

NCI-H1437 = system: NCI-H1437
Procedure, shortened: as §1

NCI-H1755 = system: NCI-H1755
Procedure, shortened: as §1

NCI-H838 = system: NCI-H838
Procedure, shortened: as §1

BEN = system: BEN
Procedure, shortened: as §1

NCI-H2023 = system: NCI-H2023
Procedure, shortened: as §1

NCI-H1563 = system: NCI-H1563
Procedure, shortened: as §1

EKVX = system: EKVX
Procedure, shortened: as §1

NCI-H358 = system: NCI-H358
Procedure, shortened: as §1

NCI-H1651 = system: NCI-H1651
Procedure, shortened: as §1

NCI-H441 = system: NCI-H441
Procedure, shortened: as §1

NCI-H2342 = system: NCI-H2342
Procedure, shortened: as §1

NCI-H460 = system: NCI-H460
Procedure, shortened: as §1

CC1(C)CCC(c2ccc(Cl)cc2)=C(CN2CCN(c3ccc(C(=O)NS(=O)(=O)c4ccc(N[C@H](CCN5CCOCC5)CSc5ccccc5)c(S(=O)(=O)C(F)(F)F)c4)cc3)CC2)C1 [Navitoclax] + COc1cccc2cc(-c3nc([C@H]4CC[C@H](C(=O)O)CC4)n4ncnc(N)c34)[nH]c12 [OSI-027] (partner 0.5 µM)
relative viability (HCC-366; first compound 0.005 µM): 0.912
relative viability (HCC-366; first compound 0.01581 µM): 0.941
relative viability (HCC-366; first compound 0.1581 µM): 0.972
relative viability (HCC-366; first compound 0.5 µM): 0.978
relative viability (NCI-H1975; first compound 0.005 µM): 0.764
relative viability (NCI-H1975; first compound 0.01581 µM): 0.83
relative viability (NCI-H1975; first compound 0.05 µM): 0.823
relative viability (NCI-H1975; first compound 0.1581 µM): 0.688
relative viability (NCI-H1975; first compound 0.5 µM): 0.677
relative viability (NCI-H1734; first compound 0.005 µM): 0.617
relative viability (NCI-H1734; first compound 0.01581 µM): 0.822
relative viability (NCI-H1734; first compound 0.1581 µM): 0.53
relative viability (NCI-H1734; first compound 0.5 µM): 0.622
relative viability (LOU-NH91; first compound 0.005 µM): 0.775
relative viability (LOU-NH91; first compound 0.01581 µM): 0.76
relative viability (LOU-NH91; first compound 0.05 µM): 0.699
relative viability (LOU-NH91; first compound 0.1581 µM): 0.755
relative viability (LOU-NH91; first compound 0.5 µM): 0.661
relative viability (NCI-H2085; first compound 0.005 µM): 0.664
relative viability (NCI-H2085; first compound 0.01581 µM): 0.871
relative viability (NCI-H2085; first compound 0.05 µM): 0.544
relative viability (NCI-H2085; first compound 0.1581 µM): 0.846
relative viability (NCI-H2085; first compound 0.5 µM): 0.757
relative viability (NCI-H1355; first compound 0.005 µM): 0.447
relative viability (NCI-H1355; first compound 0.01581 µM): 0.469
relative viability (NCI-H1355; first compound 0.05 µM): 0.425
relative viability (NCI-H1355; first compound 0.1581 µM): 0.397
relative viability (NCI-H1355; first compound 0.5 µM): 0.431
relative viability (CAL-12T; first compound 0.005 µM): 0.649
relative viability (CAL-12T; first compound 0.01581 µM): 0.676
relative viability (CAL-12T; first compound 0.05 µM): 0.557
relative viability (CAL-12T; first compound 0.1581 µM): 0.677
relative viability (CAL-12T; first compound 0.5 µM): 0.629
relative viability (HCC-44; first compound 0.05 µM): 0.627
relative viability (HCC-44; first compound 0.5 µM): 0.404
relative viability (NCI-H1395; first compound 0.005 µM): 0.591
relative viability (NCI-H1395; first compound 0.01581 µM): 0.77
relative viability (NCI-H1395; first compound 0.05 µM): 0.601
relative viability (NCI-H1395; first compound 0.1581 µM): 0.569
relative viability (NCI-H1395; first compound 0.5 µM): 0.754
relative viability (NCI-H1650; first compound 0.005 µM): 0.601
relative viability (NCI-H1650; first compound 0.01581 µM): 1
relative viability (NCI-H1650; first compound 0.05 µM): 0.698
relative viability (NCI-H1650; first compound 0.1581 µM): 0.526
relative viability (NCI-H1650; first compound 0.5 µM): 0.445
relative viability (LU99A; first compound 0.005 µM): 0.305
relative viability (LU99A; first compound 0.01581 µM): 0.345
relative viability (LU99A; first compound 0.05 µM): 0.248
relative viability (LU99A; first compound 0.1581 µM): 0.26
relative viability (LU99A; first compound 0.5 µM): 0.312
relative viability (NCI-H1437; first compound 0.005 µM): 0.845
relative viability (NCI-H1437; first compound 0.01581 µM): 0.974
relative viability (NCI-H1437; first compound 0.05 µM): 0.932
relative viability (NCI-H1437; first compound 0.1581 µM): 0.856
relative viability (NCI-H1437; first compound 0.5 µM): 0.83
relative viability (NCI-H1755; first compound 0.005 µM): 0.683
relative viability (NCI-H1755; first compound 0.01581 µM): 0.834
relative viability (NCI-H1755; first compound 0.05 µM): 0.612
relative viability (NCI-H1755; first compound 0.1581 µM): 0.649
relative viability (NCI-H1755; first compound 0.5 µM): 0.671
relative viability (NCI-H838; first compound 0.005 µM): 0.373
relative viability (NCI-H838; first compound 0.01581 µM): 0.434
relative viability (NCI-H838; first compound 0.05 µM): 0.495
relative viability (NCI-H838; first compound 0.1581 µM): 0.349
relative viability (NCI-H838; first compound 0.5 µM): 0.41
relative viability (BEN; first compound 0.005 µM): 0.286
relative viability (BEN; first compound 0.01581 µM): 0.308
relative viability (BEN; first compound 0.05 µM): 0.333
relative viability (BEN; first compound 0.1581 µM): 0.308
relative viability (BEN; first compound 0.5 µM): 0.281
relative viability (NCI-H2023; first compound 0.005 µM): 0.405
relative viability (NCI-H2023; first compound 0.01581 µM): 0.446
relative viability (NCI-H2023; first compound 0.05 µM): 0.338
relative viability (NCI-H2023; first compound 0.1581 µM): 0.38
relative viability (NCI-H2023; first compound 0.5 µM): 0.416
relative viability (NCI-H1563; first compound 0.005 µM): 0.737
relative viability (NCI-H1563; first compound 0.01581 µM): 0.809
relative viability (NCI-H1563; first compound 0.05 µM): 0.756
relative viability (NCI-H1563; first compound 0.1581 µM): 0.824
relative viability (NCI-H1563; first compound 0.5 µM): 0.812
relative viability (EKVX; first compound 0.005 µM): 0.684
relative viability (EKVX; first compound 0.01581 µM): 0.882
relative viability (EKVX; first compound 0.05 µM): 0.651
relative viability (EKVX; first compound 0.1581 µM): 0.686
relative viability (EKVX; first compound 0.5 µM): 0.737
relative viability (NCI-H358; first compound 0.005 µM): 0.785
relative viability (NCI-H358; first compound 0.01581 µM): 1.01
relative viability (NCI-H358; first compound 0.05 µM): 0.706
relative viability (NCI-H358; first compound 0.1581 µM): 0.845
relative viability (NCI-H358; first compound 0.5 µM): 0.686
relative viability (NCI-H1651; first compound 0.005 µM): 0.685
relative viability (NCI-H1651; first compound 0.01581 µM): 0.795
relative viability (NCI-H1651; first compound 0.05 µM): 0.813
relative viability (NCI-H1651; first compound 0.1581 µM): 0.782
relative viability (NCI-H1651; first compound 0.5 µM): 0.721
relative viability (NCI-H441; first compound 0.005 µM): 0.732
relative viability (NCI-H441; first compound 0.01581 µM): 0.635
relative viability (NCI-H441; first compound 0.05 µM): 0.58
relative viability (NCI-H441; first compound 0.1581 µM): 0.56
relative viability (NCI-H441; first compound 0.5 µM): 0.849
relative viability (NCI-H2342; first compound 0.005 µM): 0.579
relative viability (NCI-H2342; first compound 0.01581 µM): 0.632
relative viability (NCI-H2342; first compound 0.05 µM): 0.628
relative viability (NCI-H2342; first compound 0.1581 µM): 0.603
relative viability (NCI-H2342; first compound 0.5 µM): 0.525
relative viability (NCI-H460; first compound 0.005 µM): 0.652
relative viability (NCI-H460; first compound 0.01581 µM): 0.702
relative viability (NCI-H460; first compound 0.05 µM): 0.821
relative viability (NCI-H460; first compound 0.1581 µM): 0.652
relative viability (NCI-H460; first compound 0.5 µM): 0.671
